Assay results taken from US12310967B2, “Compositions and methods of treatment for neurological disorders comprising motor neuron diseases” (Gliapharm SA, priority 2017, dated 2025).
Like-named read-outs stand apart in the source and are kept apart here.

How the values were obtained:
[1] = system: primary astrocytes; test: High throughput screening (HTS) for lactate secretion: acidification of extracellular medium (SNARF5); type: cell-based, mouse; parameters: key to Score / HTS Score (SNARF5) / Score_SNARF: fraction of plate positive-control activity (1 = 100%); conditions: for Score / Score_SNARF: Appendix I; for Score: CDC54K primary screening, relative to CCCP 2 uM; for Score / HTS Score (SNARF5): 10 uM, 90 min; for Score_SNARF: primary screening confirmation (SNARF5); for HTS Score (SNARF5): CDC54K library, relative to positive control CCCP 2 uM
Outline: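 Mouse primary cortical astrocytes (DIV17) exposed to compounds at 10 uM final (1% DMSO) for 90 min in low-bicarbonate medium with SNARF-5F. Extracellular pH from 630/580 nm emission ratio (ex 480 nm); hits scored as % of CCCP 2 uM positive control, duplicate plates.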

[2] = system: primary astrocytes; test: Extracellular lactate quantification; type: cell-based, mouse; conditions: for Score_LACTATE: Appendix I, secondary screening: extracellular lactate; for EC50: Mus musculus, Astrocyte
Outline: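 Astrocytes were stimulated 90 min at 37 °C in D5030 medium with 5 mM glucose and 44 mM bicarbonate, with compound at 0-100 μM. Extracellular lactate was measured enzymatically with LDH/NAD in glycine-semicarbazide buffer, pH 10, for 1 h at 37 °C. NADH fluorescence (340/450 nm) was converted to lactate using an L-lactate standard curve.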

[3] = 1.5 h, CDC54K hits, 0-100 uM, 90 min, read-out: Lactate EC50

Structure (SMILES)	EC50 [2, 3] [µM]	EC50 ([2]; Appendix II, lactate secretion, read-out: EC50) [µM]	Score [1]	Score_SNARF [1]	HTS Score (SNARF5) [1]	Score_LACTATE [2]	Score Lact. ([2]; Appendix II, CDC54K library)
N#Cc1ccc(C(=O)N2CCC(Nc3ncnc4c3CCC4)C2)cc1 (stereo not shown) [T636-2387]	11.5	6.83	–	0.4809	0.445	0.3005	0.30
CSc1cccc(NS(=O)(=O)c2ccc3onc(C(=O)N4CCCC4)c3c2)c1 [L995-0125]	2	–	0.8545	0.8016	0.854	0.9122	–
CCn1nccc1-c1csc(S(=O)(=O)Nc2ccc(Cl)cc2F)c1 [L924-1031]	25.3	–	0.9286	0.8713	0.929	1.632	–
CC(=O)N1CCc2sc(S(=O)(=O)N3CCN(c4ccccc4C)CC3)cc2C1 [P025-0159]	8.7	–	0.9535	0.8007	0.953	0.9232	–
Cc1ccccc1NC(=O)C1CCCN(c2ncnc3oc(C)c(C)c23)C1 (stereo not shown) [F228-0422]	0.5	–	1.057	0.7702	1.058	0.6364	–
c1ccc2c(c1)CCN(c1ncnc3sccc13)C2 [T0517-8250]	–	–	–	0.9124	–	0.9269	–
CCc1nc(-c2csc(S(=O)(=O)NCc3ccc4c(c3)OCO4)c2)no1 [L287-0468]	7.9	–	0.5971	0.6592	0.597	0.6179	–

Continued, in another order:

EC50 [2, 3] [µM]	EC50 ([2]; Appendix II, lactate secretion, read-out: EC50) [µM]	Structure (SMILES)	Score [1]	Score_SNARF [1]	HTS Score (SNARF5) [1]	Score_LACTATE [2]	Score Lact. ([2]; Appendix II, CDC54K library)
7.9	–	O=C1CCCN1c1ccc(S(=O)(=O)Nc2cccc(/C=C/c3ccccn3)c2)cc1 [T5644989]	0.6796	0.8385	0.68	0.7859	–
10	–	CCc1ccc(S(=O)(=O)N2CCSC2c2ccc(OC)c(OC)c2)cc1 (stereo not shown) [T5463586]	0.7707	0.5553	0.77	0.3936	–
11.5	–	Cc1nc2ccc(NS(=O)(=O)c3cccc(F)c3)cc2s1 [T6937001]	0.8094	0.8557	0.809	0.9088	–
11	–	COc1cc(C)c(Cl)cc1S(=O)(=O)NCc1ccncc1 [T5580243]	0.8528	0.8565	0.853	0.7229	–
8.8	–	CCc1ccc(S(=O)(=O)Nc2ccc3[nH]ncc3c2)cc1 [T5599014]	0.5424	0.5778	0.542	0.4419	–
